Consider three molecules from patent publication US20040229791A1, “Compositions and methods of modulating TGF-beta activity by fatty acids” (priority 2002, published 2004).

The structures appear in SMILES notation.

The assay deals with T1, TGF-β1-α2M* complex (Homo sapiens, UniProt P01023).
T1 construct: was purified from pooled citrate-treate human plasma; from tissue; host or cells: pooled citrate-treated human plasma
T1 sequence (P01023 24-1474): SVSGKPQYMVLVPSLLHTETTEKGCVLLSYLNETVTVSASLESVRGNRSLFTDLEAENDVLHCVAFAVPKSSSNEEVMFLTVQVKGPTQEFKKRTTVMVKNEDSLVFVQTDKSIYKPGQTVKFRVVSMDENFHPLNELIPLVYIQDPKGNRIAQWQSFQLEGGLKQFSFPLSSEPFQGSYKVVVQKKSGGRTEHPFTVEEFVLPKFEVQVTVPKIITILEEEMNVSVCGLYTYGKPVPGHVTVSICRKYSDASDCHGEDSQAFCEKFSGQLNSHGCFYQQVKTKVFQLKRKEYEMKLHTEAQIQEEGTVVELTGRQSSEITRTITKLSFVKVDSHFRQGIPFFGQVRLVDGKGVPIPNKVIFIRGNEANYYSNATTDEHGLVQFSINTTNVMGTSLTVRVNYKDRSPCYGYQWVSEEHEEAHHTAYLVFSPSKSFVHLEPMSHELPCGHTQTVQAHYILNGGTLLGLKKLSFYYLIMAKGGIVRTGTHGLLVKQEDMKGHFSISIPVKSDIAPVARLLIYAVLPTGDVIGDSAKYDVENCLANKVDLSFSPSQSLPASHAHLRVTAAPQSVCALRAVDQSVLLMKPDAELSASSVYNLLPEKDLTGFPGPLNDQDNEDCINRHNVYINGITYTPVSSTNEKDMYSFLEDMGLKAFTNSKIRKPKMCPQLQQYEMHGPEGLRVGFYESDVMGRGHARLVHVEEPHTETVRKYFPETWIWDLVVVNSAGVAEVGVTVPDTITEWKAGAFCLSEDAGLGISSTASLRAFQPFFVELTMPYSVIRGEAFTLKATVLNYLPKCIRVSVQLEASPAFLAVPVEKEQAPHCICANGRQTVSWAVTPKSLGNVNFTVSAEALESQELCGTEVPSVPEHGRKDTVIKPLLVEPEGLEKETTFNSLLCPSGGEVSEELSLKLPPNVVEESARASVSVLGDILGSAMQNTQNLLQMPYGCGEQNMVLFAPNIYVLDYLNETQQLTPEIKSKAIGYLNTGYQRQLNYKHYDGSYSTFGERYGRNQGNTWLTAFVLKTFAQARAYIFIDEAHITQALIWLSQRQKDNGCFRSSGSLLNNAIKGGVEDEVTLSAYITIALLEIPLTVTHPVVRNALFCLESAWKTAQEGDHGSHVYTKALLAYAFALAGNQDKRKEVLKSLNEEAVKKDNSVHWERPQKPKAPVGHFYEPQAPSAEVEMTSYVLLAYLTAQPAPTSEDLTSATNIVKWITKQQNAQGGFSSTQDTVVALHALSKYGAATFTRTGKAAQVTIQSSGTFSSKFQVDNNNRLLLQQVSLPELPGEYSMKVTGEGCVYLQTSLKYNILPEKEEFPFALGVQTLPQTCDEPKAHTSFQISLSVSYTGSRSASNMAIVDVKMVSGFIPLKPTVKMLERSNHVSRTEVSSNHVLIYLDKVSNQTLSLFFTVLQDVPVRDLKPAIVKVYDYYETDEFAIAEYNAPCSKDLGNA
Kind of assay: Inhibition of 125I-TGF-β1 and α2M* complex formation (5% non-denaturing PAGE, autoradiography). It is filed as binding. Particulars: for IC50: ~1 nM 125I-TGF-β1, 10 μg α2M* in 0.05 ml, 30 min room temperature, non-denaturing PAGE, read-out: IC50 for inhibiting complex formation between TGF-β1 and α2M*. As to the method: Saturated and unsaturated fatty acids are present in plasma and tissues (25,26). The effects of various concentrations of saturated fatty acids on the formation of complexes between ^125I-TGF ? β1 and ? 2M* were examined. ^125I-TGF- ? 1 (1 nM) was incubated μg/ml) in the presence of various concentrations of n-caprylic acid ([…]), lauric acid (12 carbon atoms), myristic acid (14 carbon atoms), palmitic acid (16 carbon atoms) and stearic acid (18 carbon atoms). After 30 min at room temperature, the reaction mixture was analyzed by 5% non-denaturing PAGE and autoradiography, a standard method form determining complex formation between TGF-β and α2M* (12). […] At 100 μM, it inhibited 20% of the complex formation between TGF ? β1 and α2M*. Esterification consistently abolished the inhibitory activities of the fatty acids.
Complex formation of ^125I-TGF-β and ? 2M*—The reaction mixture contained 10 μg of . α2M*, ˜1 nM of ^125I-TGF- ? 1, ^125I-TGF ? β2 or ^125I-TGF ? acids (dissolved in 100% ethanol) in 0.05 ml of 50 mM HEPES-NaOH buffer, pH 7.4. The final concentration of ethanol in the reaction mixture was 0.5%. These fatty acids and fatty acid derivatives were soluble under the experimental conditions. After 30 min at room temperature, the complex formation of ^125I-TGF- ? and. α2M* was determined by 5% non-denaturing polyacrylamide gel electrophoresis (PAGE) or by 7.5% SDS-PAGE following cross-linking by 0.6 mM DSS. After electrophoresis, the gel was stained with Coomassie blue and analyzed by autoradiography. The ^125I-TGF- ? - ? 2M* complex which co-migrated with free ? 2M* was quantified using a PhosphoImager (Fuji).

Take `CCCCCC=CCC=CCC=CCC#CCCCC(=O)O` [ETYA, 8, 11, 14 eicosatrien-5-ynoic acid]: the half-inhibitory concentration (IC50) was determined as 30 µM.

As for `CCCCC/C=C\C/C=C\C/C=C\C/C=C\CCCC(=O)OC` [arachidonic acid methyl ester], the “inhibitory activity on complex formation of 125I-TGF-β1 and α2M*” value was “inactive”.

In the case of `CCCCCCCCCCCC(=O)O` [lauric acid], the IC50 was 68 µM.

A word on the IC50: it is the midpoint of a concentration-inhibition curve.
